From PubChem BioAssay AID332 (DTP/NCI, 2004) come the findings set out here.

“And” between values parts separate entries of the source, which are not always exact repeats. Identical values can stand only once. Inconclusive results are not listed.

The subject of the test is mice, ADJ-PC-20 plasma cell tumor sc, T/C %. As to the kind of experiment: NCI In Vivo Anticancer Drug Screen. Data for tumor model ADJ-PC-20 Plasma Cell (subcutaneous) in unknown mice. The settings on record: endpoint: mean tumor weight, higher = larger tumour. The method, then: The antitumor activity of compounds was measured in mice bearing transplantable tumors. Survival or tumor size were measured and the results are expressed as the measurement made in the treated group (T) divided by the measurement made in the vehicle treated control group (C). The tumor model used in this assay is ADJ-PC-20 Plasma Cell (subcutaneous) in unknown mice

[1] abbreviates: dose: 62.5 mg/kg/injection, schedule: Q01DX010 (ip), vehicle: carboxymethylcellulose (CMC).
Where [2] appears, read: dose: 125.0 mg/kg/injection, schedule: Q01DX010 (ip), vehicle: carboxymethylcellulose (CMC).
Where [3] appears, read: dose: 250.0 mg/kg/injection, schedule: Q01DX010 (ip), vehicle: carboxymethylcellulose (CMC).
Where [4] appears, read: dose: 500.0 mg/kg/injection, schedule: Q01DX010 (ip), vehicle: carboxymethylcellulose (CMC).
Setting [5] is: dose: 1000.0 mg/kg/injection, schedule: Q01DX010 (ip), vehicle: carboxymethylcellulose (CMC).
The mark [6] stands for this setting: dose: 6.25 mg/kg/injection, schedule: Q01DX010 (ip), vehicle: methylcellulose (MC).
Where [7] appears, read: dose: 12.5 mg/kg/injection, schedule: Q01DX010 (ip), vehicle: methylcellulose (MC).
Where [8] appears, read: dose: 0.63 mg/kg/injection, schedule: Q01DX010 (ip), vehicle: carboxymethylcellulose (CMC).
Where [9] appears, read: dose: 1.25 mg/kg/injection, schedule: Q01DX010 (ip), vehicle: carboxymethylcellulose (CMC).
Setting [10] is: dose: 2.5 mg/kg/injection, schedule: Q01DX010 (ip), vehicle: carboxymethylcellulose (CMC).
Where [11] appears, read: dose: 0.5 mg/kg/injection, schedule: Q01DX010 (ip), vehicle: carboxymethylcellulose (CMC).
The mark [12] stands for this setting: dose: 1.0 mg/kg/injection, schedule: Q01DX010 (ip), vehicle: carboxymethylcellulose (CMC).
Where [13] appears, read: dose: 2.0 mg/kg/injection, schedule: Q01DX010 (ip), vehicle: carboxymethylcellulose (CMC).
[14] abbreviates: dose: 4.0 mg/kg/injection, schedule: Q01DX010 (ip), vehicle: carboxymethylcellulose (CMC).
[15] abbreviates: dose: 250.0 mg/kg/injection, schedule: Q01DX010 (ip), vehicle: saline.
The mark [16] stands for this setting: dose: 500.0 mg/kg/injection, schedule: Q01DX010 (ip), vehicle: saline.

In the case of `O=NN(CCCl)C(=O)NCCCl`, the T/C runs as follows: (dose: 0.8 mg/kg/injection, schedule: Q01DX010 (ip), vehicle: saline) 102 % of control; (dose: 1.6 mg/kg/injection, schedule: Q01DX010 (ip), vehicle: saline) 87 % of control; (dose: 6.2 mg/kg/injection, schedule: Q01DX010 (ip), vehicle: saline) 48 % of control.
Regarding `C[C@]12C=CC(=O)C=C1CC[C@@H]1[C@@H]2[C@@H](O)C[C@@]2(C)[C@H]1CC[C@]2(O)C(=O)CO`, the T/C (dose: 32.0 mg/kg/injection, schedule: Q01DX010 (sc), vehicle: steriod suspending solution) is 63 % of control.
Consider `O=CCC(O)C(O)C(O)CO` (stereo not given), for which the T/C is 110 % of control under setting [1]; 115 % of control under setting [2]; 117 % of control under setting [3]; 80 % of control under setting [4]; 96 % of control under setting [5]; 94 % of control (dose: 2000.0 mg/kg/injection, schedule: Q01DX010 (ip), vehicle: carboxymethylcellulose (CMC)).
Take `O=P1(N(CCCl)CCCl)NCCCO1` (stereo not given): the T/C reads like this: (dose: 3.2 mg/kg/injection, schedule: Q01DX010 (ip), vehicle: saline) 21 % of control; (dose: 6.25 mg/kg/injection, schedule: Q01DX010 (ip), vehicle: saline) 7 % of control.
Take `CS(=O)(=O)OCCCCOS(C)(=O)=O`: the T/C by setting is: under setting [6], 93 % of control; under setting [7], 66 % of control; (dose: 25.0 mg/kg/injection, schedule: Q01DX010 (ip), vehicle: methylcellulose (MC)) 71 % of control and 72 % of control; (dose: 50.0 mg/kg/injection, schedule: Q01DX010 (ip), vehicle: methylcellulose (MC)) 42 % of control.
Take `COC12C(COC(N)=O)C3=C(C(=O)C(C)=C(N)C3=O)N1CC1C2N1C` (stereo not given): the T/C under setting [8] was 81 % of control, the T/C under setting [9] was 43 % of control and the T/C under setting [10] is 13 % of control.
Take `CC(=O)Nc1ccc2nc3ccc(NC(C)=O)cc3[n+](-c3ccccc3)c2c1`: the T/C (dose: 12.5 mg/kg/injection, schedule: Q01DX010 (ip), vehicle: carboxymethylcellulose (CMC)) was 65 % of control; the T/C (dose: 25.0 mg/kg/injection, schedule: Q01DX010 (ip), vehicle: carboxymethylcellulose (CMC)) is 76 % of control; the T/C (dose: 50.0 mg/kg/injection, schedule: Q01DX010 (ip), vehicle: carboxymethylcellulose (CMC)) is 77 % of control.
For `N=C(N)c1ccc(Nc2ccc(C(=N)N)cc2)cc1`, the T/C under setting [6] was 116 % of control and the T/C under setting [7] was 105 % of control.
`Cn1cnc([N+](=O)[O-])c1Sc1nc(N)nc2nc[nH]c12`: the T/C is 71 % of control under setting [11]; 33 % of control under setting [12]; 30 % of control and 31 % of control under setting [13]; 2 % of control under setting [14].
Take `Nc1nc(=S)c2ncn(C3OC(CO)C(O)C3O)c2[nH]1` (stereo not given): the T/C is, setting by setting: (dose: 0.31 mg/kg/injection, schedule: Q01DX010 (ip), vehicle: carboxymethylcellulose (CMC)) 63 % of control; under setting [8], 31 % of control; under setting [9], 7 % of control; under setting [10], 1 % of control.
Take `O=C(Nc1ccc(C2=NCCCN2)cc1)c1ccc(NC(=O)c2ccc(C3=NCCCN3)cc2)cc1`: the T/C runs as follows: (dose: 0.12 mg/kg/injection, schedule: Q01DX010 (ip), vehicle: carboxymethylcellulose (CMC)) 99 % of control; (dose: 0.25 mg/kg/injection, schedule: Q01DX010 (ip), vehicle: carboxymethylcellulose (CMC)) 87 % of control; under setting [11], 109 % of control; under setting [12], 84 % of control; under setting [13], 94 % of control; under setting [14], 83 % of control. The T/C (dose: 8.0 mg/kg/injection, schedule: Q01DX010 (ip), vehicle: carboxymethylcellulose (CMC)) is 56 % of control.
With `C[C@]12CCC(=O)C=C1CC[C@@H]1[C@@H]2CC[C@@]2(C)[C@H]1CC[C@]2(C)O`, the T/C (dose: 31.25 mg/kg/injection, schedule: Q01DX010 (sc), vehicle: steriod suspending solution) is 113 % of control; the T/C (dose: 62.5 mg/kg/injection, schedule: Q01DX010 (sc), vehicle: steriod suspending solution) was 114 % of control; the T/C (dose: 125.0 mg/kg/injection, schedule: Q01DX010 (sc), vehicle: steriod suspending solution) was 99 % of control.
As for `COC1=C(N)C(=O)c2nc(-c3nc(C(=O)O)c(C)c(-c4ccc(OC)c(OC)c4O)c3N)ccc2C1=O`, the T/C (dose: 0.02 mg/kg/injection, schedule: Q01DX010 (ip), vehicle: other) was 97 % of control; the T/C (dose: 0.04 mg/kg/injection, schedule: Q01DX010 (ip), vehicle: other) is 66 % of control; the T/C (dose: 0.08 mg/kg/injection, schedule: Q01DX010 (ip), vehicle: other) was 71 % of control; the T/C (dose: 0.17 mg/kg/injection, schedule: Q01DX010 (ip), vehicle: other) is 44 % of control; the T/C (dose: 0.34 mg/kg/injection, schedule: Q01DX010 (ip), vehicle: other) is 13 % of control.
Regarding `S=P(N1CC1)(N1CC1)N1CC1`, the T/C runs as follows: (dose: 0.63 mg/kg/injection, schedule: Q01DX010 (ip), vehicle: saline) 57 % of control; (dose: 1.25 mg/kg/injection, schedule: Q01DX010 (ip), vehicle: saline) 2 % of control.
Regarding `CN(C)CC(=O)c1ccc(O)c(O)c1`, the T/C was 99 % of control (dose: 62.5 mg/kg/injection, schedule: Q01DX010 (ip), vehicle: saline); 77 % of control under setting [15]; 72 % of control and 86 % of control under setting [16].
Turning to `CN(N=O)C(=O)NC(C=O)C(O)C(O)C(O)CO` (stereo not given), for the setting “dose: 50.0 mg/kg/injection, schedule: Q01DX010 (ip), vehicle: saline”, the T/C is 68 % of control.
For the compound `O=c1cn[nH]c(=O)[nH]1`, the T/C is 75 % of control under setting [2], 64 % of control under setting [3], 66 % of control under setting [4] and 38 % of control under setting [5].
As for `O=C1CCC(N2C(=O)c3ccccc3C2=O)C(=O)N1` (stereo not given), the T/C was 55 % of control (dose: 18.75 mg/kg/injection, schedule: Q01DX010 (ip), vehicle: carboxymethylcellulose (CMC)); 104 % of control (dose: 37.5 mg/kg/injection, schedule: Q01DX010 (ip), vehicle: carboxymethylcellulose (CMC)); 107 % of control (dose: 75.0 mg/kg/injection, schedule: Q01DX010 (ip), vehicle: carboxymethylcellulose (CMC)); 82 % of control and 99 % of control (dose: 150.0 mg/kg/injection, schedule: Q01DX010 (ip), vehicle: carboxymethylcellulose (CMC)); 107 % of control and 113 % of control (dose: 300.0 mg/kg/injection, schedule: Q01DX010 (ip), vehicle: carboxymethylcellulose (CMC)); 82 % of control (dose: 600.0 mg/kg/injection, schedule: Q01DX010 (ip), vehicle: carboxymethylcellulose (CMC)).
Consider `Clc1ncnc2nc[nH]c12`, for which the T/C (dose: 7.8 mg/kg/injection, schedule: Q01DX010 (ip), vehicle: carboxymethylcellulose (CMC)) was 153 % of control; the T/C (dose: 15.6 mg/kg/injection, schedule: Q01DX010 (ip), vehicle: carboxymethylcellulose (CMC)) is 86 % of control; the T/C (dose: 31.2 mg/kg/injection, schedule: Q01DX010 (ip), vehicle: carboxymethylcellulose (CMC)) is 64 % of control; the T/C (dose: 31.25 mg/kg/injection, schedule: Q01DX010 (ip), vehicle: carboxymethylcellulose (CMC)) was 14 % of control; the T/C under setting [1] is 3 % of control; the T/C under setting [2] is 4 % of control.
Regarding `CSCS(=O)C[C@H](CO)NC(=O)/C=C/c1c(C)[nH]c(=O)[nH]c1=O` (stereo not given in full), the T/C by setting is: (dose: 0.25 mg/kg/injection, schedule: Q01DX010 (ip), vehicle: saline) 71 % of control; (dose: 0.5 mg/kg/injection, schedule: Q01DX010 (ip), vehicle: saline) 82 % of control.
For the compound `C[C@H](N)C(=O)N[C@@H]1[C@H]2C(=C(O)C[C@@H](O)[C@@H]2O)C(=O)O[C@@H]1C`, the T/C was 48 % of control under setting [15] and 58 % of control under setting [16].
For `C=CC(CN1CC1)OC(C)=O` (stereo not given), the T/C (dose: 3.75 mg/kg/injection, schedule: Q01DX010 (ip), vehicle: carboxymethylcellulose (CMC)) was 72 % of control and the T/C (dose: 7.5 mg/kg/injection, schedule: Q01DX010 (ip), vehicle: carboxymethylcellulose (CMC)) is 40 % of control.
